Measurements: patent US9150585B2, “Analogs of camptothecin” (FL Therapeutics, LLC, priority 2012, dated 2015)

Tests used:
[1] = Persistence in plasma (incubation with human plasma, LC-MS/MS); type: in vitro ADME; details: for Peak Area Ratio (Analyte/IS) Human Plasma 0 min Replicate 1 / Peak Area Ratio (Analyte/IS) Human Plasma 0 min Replicate 2 / Peak Area Ratio (Analyte/IS) Human Plasma 60 min Replicate 1 / Peak Area Ratio (Analyte/IS) Human Plasma 60 min Replicate 2 / % Remaining after 1-hr Incubation at 37° C. in Human Plasma, Average / % Remaining after 1-hr Incubation at 37° C. in Human Plasma, Replicate 1 / % Remaining after 1-hr Incubation at 37° C. in Human Plasma, Replicate 2: 10 μM
Description: Test compounds and control (procaine) were incubated at a concentration of 10 μM with human plasma. The duplicate incubations, conducted in 96-well plates in a shaking water bath maintained at 37° C., were performed for 0 and 60 minutes and quenched by addition of acetonitrile.
After quenching by acetonitrile, the plates were capped, vortexed, and centrifuged at 3000 rpm for 10 minutes. The supernatant was injected into LC-MS/MS.
[formula] […] FL-001 and FL-003 are stable in human plasma, with a percent remaining of 127 and 89, respectively. Using the same protocol, the percent remaining of Camptothecin after 1-hr incubation in human plasma is 11%.

[2] = biological target: Human serum albumin (HSA) (Homo sapiens, UniProt P02768); test: in vitro; details: isolated protein
Chain of Human serum albumin (HSA) (P02768 25-609): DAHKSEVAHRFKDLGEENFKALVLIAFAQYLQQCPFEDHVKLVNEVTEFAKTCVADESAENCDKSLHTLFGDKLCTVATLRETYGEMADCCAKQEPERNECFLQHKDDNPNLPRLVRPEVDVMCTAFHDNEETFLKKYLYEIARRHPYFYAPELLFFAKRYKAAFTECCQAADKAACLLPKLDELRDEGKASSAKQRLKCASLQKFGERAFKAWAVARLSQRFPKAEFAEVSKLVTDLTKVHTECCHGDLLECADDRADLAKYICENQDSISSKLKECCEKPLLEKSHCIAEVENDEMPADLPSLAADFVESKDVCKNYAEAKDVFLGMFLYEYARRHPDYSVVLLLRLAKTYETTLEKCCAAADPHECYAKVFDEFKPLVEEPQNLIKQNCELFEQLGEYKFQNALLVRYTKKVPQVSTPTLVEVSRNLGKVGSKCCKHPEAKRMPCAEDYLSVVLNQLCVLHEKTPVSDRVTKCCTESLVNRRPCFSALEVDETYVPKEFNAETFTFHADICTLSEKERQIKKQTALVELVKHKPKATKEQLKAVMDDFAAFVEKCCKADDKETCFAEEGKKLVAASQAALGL
Description: Equilibrium dialysis was performed in a 24-well BD Gentest Serum Binding System (BD Biosciences, Woburn, Mass.). Human serum albumin (HSA) at 0.6 mM was prepared by dissolving in phosphate buffered saline (PBS: 4.01 mL 1 M K2HPO4+0.99 mL 1 M KH2PO4+1.37 mL 5 M NaCl+43.63 mL water). After washing and soaking the 24-well BD Gentest Serum Binding System with water, 30% ethanol, and PBS, 750 μL of HSA and 250 μL of PBS were dispensed into each donor and receiver well, respectively. 3.75 μL of 1 mM test compound or wafarin (as control) was spiked into HSA in each donor well. The duplicate incubations were performed at 37° C. for 20 hrs.
After incubation, HSA and buffer samples collected from donor and receiver wells, together with calibration standard samples, were prepared in 96-well plates as shown in Table 5.
The plates were then capped, vortexed, and centrifuged at 3500 rpm for 10 minutes. The supernatant was injected into LC-MS/MS. Sample analysis was performed on an LC/MS/MS system composed of Shimadzu Prominence pumps, SIL-20ACHT autosampler, and Applied Biosystems/MDS Sciex API 3200.

[3] = cited from earlier work
[4] = in presence of HSA; cited from earlier work
[5] = human plasma, 37° C., replicate 1
[6] = human plasma, 37° C., replicate 2

In the case of CCCCCCCCCCCCCCCCC(NC(=O)CCC(=O)O[C@]1(CC)C(=O)OCc2c1cc1n(c2=O)Cc2cc3ccccc3nc2-1)C(=O)O (stereo partly drawn) [FL-001], the “Peak Area Ratio (Analyte/IS) Human Plasma 0 min Replicate 1” value [1, 5] is reported as 1.47, the “Peak Area Ratio (Analyte/IS) Human Plasma 0 min Replicate 2” value [1, 6] is reported as 1.75 and the “Peak Area Ratio (Analyte/IS) Human Plasma 60 min Replicate 1” value [1, 5] is reported as 1.96. The “Peak Area Ratio (Analyte/IS) Human Plasma 60 min Replicate 2” value [1, 6] was 2.13, the “% Remaining after 1-hr Incubation at 37° C. in Human Plasma, Average” value (shortened to “% Remaining after 1-hr Incubation … Average”) ([1]; human, plasma, 1 h) was 127% and the “% Remaining after 1-hr Incubation at 37° C. in Human Plasma, Replicate 1” value (shortened to “% Remaining after 1-hr Incubation … Replicate 1”) ([1]; human, plasma, 1 h) was 122%. For the same molecule, the “% Remaining after 1-hr Incubation at 37° C. in Human Plasma, Replicate 2” value (shortened to “% Remaining after 1-hr Incubation … Replicate 2”) ([1]; human, plasma, 1 h) was 132% and the fraction unbound at 20 h, 5 μM [2] was under 0.001.
CCCCCCCCCCCCC(NC(=O)CCC(=O)O[C@]1(CC)C(=O)OCc2c1cc1n(c2=O)Cc2cc3c(CN(C)C)c(O)ccc3nc2-1)C(=O)O (stereo partly drawn) [FL-008] gave a fraction unbound at 20 h, 5 μM [2] of under 0.002.
For CC(=O)CC(c1ccccc1)c1c(O)c2ccccc2oc1=O (stereo not drawn) [Warfarin], the “protein binding in human plasma (literature values)” value [3] is given as 98-100%.
CCCCCCCCCCCCCCCC(=O)N[C@@H](CCC(=O)NCC(=O)O[C@]1(CC)C(=O)OCc2c1cc1n(c2=O)Cc2c-1nc1ccc(O)cc1c2CC)C(=O)O [FL-033] gave a fraction unbound at 20 h, 5 μM [2] of under 0.001.
CCCCCCCCCCCCCCCCC(NC(=O)C(CCCCN)NC(=O)CCC(=O)O[C@]1(CC)C(=O)OCc2c1cc1n(c2=O)Cc2cc3ccccc3nc2-1)C(=O)O (stereo partly drawn) [FL-013] gave a fraction unbound at 20 h, 5 μM [2] of under 0.001.
With CCCCCCCCCCCCCCCCC(NC(=O)CCC(=O)O[C@]1(CC)C(=O)OCc2c1cc1n(c2=O)Cc2c-1nc1ccc(O)cc1c2CC)C(=O)O (stereo partly drawn) [FL-003] the “Peak Area Ratio (Analyte/IS) Human Plasma 0 min Replicate 1” value [1, 5] was 3.91, the “Peak Area Ratio (Analyte/IS) Human Plasma 0 min Replicate 2” value [1, 6] was 4.03 and the “Peak Area Ratio (Analyte/IS) Human Plasma 60 min Replicate 1” value [1, 5] was 3.37. The “Peak Area Ratio (Analyte/IS) Human Plasma 60 min Replicate 2” value [1, 6] was 3.73, the “% Remaining after 1-hr Incubation … Average” value ([1]; human plasma, 37° C., 1 hr, average of duplicates) was 89% and the “% Remaining after 1-hr Incubation … Replicate 1” value ([1]; human plasma, 37° C., 1 hr, replicate 1) was 85%. The “% Remaining after 1-hr Incubation … Replicate 2” value ([1]; human plasma, 37° C., 1 hr, replicate 2) was 94% and the fraction unbound at 20 h, 5 μM [2] was under 0.001.
In the case of CCN(CC)CCOC(=O)c1ccc(N)cc1 [Procaine, reference compound], the “Peak Area Ratio (Analyte/IS) Human Plasma 0 min Replicate 1” value [1, 5] is reported as 0.60, the “Peak Area Ratio (Analyte/IS) Human Plasma 0 min Replicate 2” value [1, 6] is reported as 1.21 and the “Peak Area Ratio (Analyte/IS) Human Plasma 60 min Replicate 1” value [1, 5] is reported as 0.00. The “Peak Area Ratio (Analyte/IS) Human Plasma 60 min Replicate 2” value [1, 6] was 0.11, the “% Remaining after 1-hr Incubation … Average” value ([1]; human, plasma, 1 h) was 6% and the “% Remaining after 1-hr Incubation … Replicate 1” value ([1]; human, plasma, 1 h) was 0%. For the same molecule, the “% Remaining after 1-hr Incubation … Replicate 2” value ([1]; human, plasma, 1 h) was 12%.
Molecule CCCCCCCCCCCCCCCC(=O)N(CCC(=O)O[C@]1(CC)C(=O)OCc2c1cc1n(c2=O)Cc2cc3ccccc3nc2-1)CC(=O)O [FL-015] has a fraction unbound at 20 h, 5 μM [2] of under 0.001.
In the case of CC[C@@]1(O)C(=O)OCc2c1cc1n(c2=O)Cc2cc3c(N)cccc3nc2-1 [9-Aminocamptothecin], the “equilibrium concentration of active (lactone) form in blood” value [4] is given as “less than 0.5%”.
CCCCCCCCCCCCCCCCC(NC(=O)CCCC(=O)O[C@]1(CC)C(=O)OCc2c1cc1n(c2=O)Cc2cc3c(CN(C)C)c(O)ccc3nc2-1)C(=O)O (stereo partly drawn) [FL-010] showed a fraction unbound at 20 h, 5 μM [2] of under 0.002.
Molecule CCCCCCCCCCCCCCCCC(NC(=O)CCC(=O)O[C@]1(CC)C(=O)OCc2c1cc1n(c2=O)Cc2cc3c(CN(C)C)c(O)ccc3nc2-1)C(=O)O (stereo partly drawn) [FL-004] has a fraction unbound at 20 h, 5 μM [2] of under 0.002.
CCCCCCCCC(NC(=O)CCC(=O)O[C@]1(CC)C(=O)OCc2c1cc1n(c2=O)Cc2cc3c(CN(C)C)c(O)ccc3nc2-1)C(=O)O (stereo partly drawn) [FL-006] gave a fraction unbound at 20 h, 5 μM [2] of 0.015.
For CC[C@@]1(O)C(=O)OCc2c1cc1n(c2=O)Cc2cc3ccccc3nc2-1 [Camptothecin], the “percent remaining after 1-hr incubation in human plasma” value ([1]; same protocol, human plasma, 1 hr) was 11%.
